Row | SMILES | melting point [°C]
1 | O=C(Cn1nc(-c2cc(Cl)ccc2O)nc1-c1cc(Cl)ccc1O)NCCN1CCOCC1 | 224 to 226
2 | Cc1nc2c(N)nc3c(c2n1CC(C)C)CCNC3 | 226 to 230
3 | O=C(Oc1c(F)c(F)c(F)c(F)c1F)c1ccccn1 | 62 to 64
4 | CCOC(=O)c1cn(CCCN(C)C)c2nn(C)cc2c1=O | 120 to 121
5 | CC1(C)[C@@H](C=C(c2ccccc2)c2ccccc2)[C@@H]1C(=O)O (relative stereo) | 115
6 | CP(C)(=O)COc1cc(Cl)c(C=O)c(Cl)c1 | 136 to 139
7 | O=C(O)c1cc2cc(Cl)ccc2nc1NC(Cc1ccc(C#Cc2ccccc2)cc1)C(=O)O (configuration not stated) | 164 to 173
8 | O=c1[nH]c2ccccc2n1CCN1CCC(Nc2nc3cccnc3n2CCOCCO)CC1 | 177
9 | Cc1ccc(CC(O)=S)cc1 | 94.5 to 95
10 | CNC(C)CN1CCc2c(c(=O)oc3cc(C)c(NC(C)=O)cc23)C1 (configuration not stated) | 187 to 188
11 | COc1cccc(C2CCCN(C(=O)N(C)O)C2)c1 (configuration not stated) | 96 to 98
12 | N#CC(N)c1c(Cl)cccc1Cl (configuration not stated) | > 300
13 | O=C(Nc1ccc2nc(S)[nH]c2c1)C(=O)N1CCC(Cc2ccccc2)CC1 | 277 to 281
14 | CON=C(C(=O)OC)c1c(C)cccc1CBr | 76 to 78
15 | Cc1nccn1-c1ccc([N+](=O)[O-])cc1F | 106 to 107
16 | CC1(C)Oc2cc3nonc3cc2C(N2CCC(=O)CC2=O)C1O (configuration not stated) | 220 to 223
17 | COC(=O)Cn1c(Cc2ccccc2)ccc(NC(=O)CCCc2ccccc2)c1=O | 93 to 95
18 | CC1(C)CCC(C)(C)c2cc(C(=O)Nc3ccccc3)ccc21 | 144 to 146
19 | COc1cc(N)cc([N+](=O)[O-])c1OC | 129 to 131
20 | CCC(=Cc1ccccc1)C(=O)O | 104 to 105
21 | CCOC(=O)NNc1ccnc2c(NC(=O)c3c(Cl)cccc3Cl)cccc12 | 151 to 155
22 | COc1cccc(COC(=O)c2ncn3c2[C@@H]2CCCN2C(=O)c2c(Cl)cccc2-3)c1 | 131 to 133
23 | O[C@H](COc1cccc2[nH]ccc12)CN1CC=C(c2c[nH]c3ccc(F)cc23)CC1 | 95 to 100

Row | SMILES | melting point [°C]
24 | CNC1(c2cccs2)CCC(=O)CC1 | 72 to 74
25 | CC(C)[C@H](NS(=O)(=O)c1ccc(-c2ccc(Br)cc2)cc1)C(=O)O | 192 to 193
26 | Cc1nc(O)c([N+](=O)[O-])c(O)n1 | > 300
27 | O=C(O)c1cccc(Cl)c1C[PH](=O)CO (configuration not stated) | 219 to 220
28 | CCc1cccc(C2(O)C3CC4CC(C3)CC2C4)c1 (configuration not stated) | 63 to 65
29 | CCOC(=O)c1cc(C(=O)c2cccc(S(=O)(=O)F)c2)sc1NC(=O)OCC(Cl)(Cl)Cl | 108 to 110
30 | COC(=O)CCNC(=O)C1CCCN1S(=O)(=O)c1ccc(Cl)c(COc2cccc3c(C)cc(C)nc23)c1Cl (configuration not stated) | 64 to 67
31 | CON(C)C(=O)c1cc(N)c(F)cc1Cl | 118
32 | O=C(CC(=O)c1ccccc1)C(=O)CC(=O)c1ccccc1 | 178 to 180
33 | O=C(O)CN(CC(=O)O)CC(=O)Nc1cc(C(F)(F)F)cc(C(F)(F)F)c1 | 201
34 | CC(C)(C)C(=O)Nc1ccc(Cl)cc1C(=O)C[C@H]1C(=O)OCN1C(=O)OCc1ccccc1 | 113 to 116
35 | CCc1ccc(C=C2C(=O)c3cc(O)ccc3OC2c2ccc(CC)cc2)cc1 (configuration not stated) | 178 to 180
36 | O=C(Nc1ccc2ccc(-c3ccccc3)nc2n1)c1cccc(Br)c1 | 175
37 | CCOC(=O)NC(=O)c1nc(Cl)c(Cl)[nH]1 | 208
38 | Cn1c(CCN2CCN(Cc3ccccc3)CC2)nc2ccc3ccccc3c21 | 144 to 146
39 | O=[N+]([O-])c1ccc(C=CS(=O)(=O)N=C(Cl)c2ccccc2)cc1 | 168 to 175
40 | Nc1cc(I)cnc1Cl | 129
41 | CCOC(=O)C(C)(C)Oc1ccc(C(=O)c2cccs2)cc1 | 45
42 | Cc1c(O)cc2c(c1Cl)CCC2(C)C | 109 to 110
43 | O=C(Nc1cccc(Cl)c1)c1ccccc1CN1C(=O)C2(COc3cc4c(cc32)CCO4)c2ccccc21 (configuration not stated) | > 230
44 | Cn1cc(-c2cccc(C(F)(F)F)c2)c(=O)c(-c2ccccc2C(F)(F)F)c1 | 135 to 138
45 | O=CCOc1ccccc1OCC(F)(F)F | 55.3 to 57.5
46 | NC(=O)c1nnc2n1-c1ccc(Cl)cc1C(c1ccccc1)=NC2 | 285 to 289

Row | SMILES | melting point [°C]
47 | CCCCCCCCCCCCCCCCCCN(C(=O)CCCCCCCCCCC)C1O[C@H](CO)[C@@H](O)[C@H](O)[C@H]1NC(=O)CCCCCCCCCCC (some centres not stated) | 86
48 | CN(C)S(=O)(=O)c1ccc2ccc3ccccc3c(=O)c2c1 | 130 to 136
49 | NS(=O)(=O)c1ccccc1OC(F)(F)C(F)F | 117 to 119
50 | COc1cccc(C=C(NC=O)c2ccncc2)c1OC | 161 to 162
51 | CCC(=O)NCCC1CCc2c(F)cc3nn(C)cc3c21 (configuration not stated) | 117 to 119
52 | CC(C)Cc1cc(S(=O)(=O)Cl)c(C(C)C)cc1Cl | 90 to 94
53 | Cc1cccc(Cl)c1C(=O)N[C@@H](Cc1ccc(-c2cn(C)c(=O)n(C)c2=O)cc1)C(=O)O | 234 to 236
54 | CN(CCOc1cc(-c2ccc(O)cc2)nn1C)CCc1ccc(Cl)cc1 | 90 to 91
55 | CCOC(=O)N1CCC2(CC1)N=C(N)c1c(F)cccc1O2 | 114 to 116
56 | Cc1nc(-c2ccc(OCC(C)(C)C)c([N+](=O)[O-])c2)sc1C(=O)O | 242 to 245
57 | CC(C)(Oc1ccc(NC(=O)Oc2ccc(Cl)cc2)cc1)C(=O)O | 179 to 182
58 | COC(=O)c1cccc(NC(=O)c2ccccc2)c1O | 105
59 | Cc1cc(C)c(-c2ccnc(Nc3ccc(F)cc3)n2)[nH]1 | 168 to 172
60 | NCc1c(NC2CCCCC2)cccc1-c1ccccc1 | 95 to 96
61 | O=C(OCCn1ccnc1)c1ccccc1O | 74 to 75
62 | CC(=O)S[C@@H]1C[C@@H](C(=O)N(CCc2ccccc2)CC(=O)O)N(S(=O)(=O)c2ccc3ccccc3c2)C1 | 190 to 193
63 | C[C@@H]1S[C@@H](C(=O)Nc2ccc(CC3OC(=O)NC3=O)cc2)Cc2cc3c(cc2C1=O)OCO3 (some centres not stated) | 164 to 166
64 | COc1ccccc1C(=O)ON1C(=O)CCC1=O | 180 to 182
65 | Cc1ccc(N(c2ccc(C)cc2)c2ccc(C=C3c4ccccc4C=Cc4ccccc43)cc2)cc1 | 168 to 169
66 | O=C1C=Cc2ccc3ncccc3c2C1=O | 215 to 216
67 | O=C(Nc1ccc(OCCCN2CCCC2=O)c2ccccc12)c1cc(F)cc(N2CCCCC2)c1 | 88 to 89
68 | CCCCCCC(c1ccc2[nH]c(-c3ccc(F)cc3)nc2c1)n1ccnc1 (configuration not stated) | 122

Further lines, results first:

Row | melting point [°C] | SMILES
69 | 126 | COC(=O)CCCCc1cc2nc(Cl)ccc2n1S(=O)(=O)c1cc(C)cc(C)c1
70 | 79 to 80 | C#CCOc1cc(CO)cc(OCC#C)c1
71 | 235 to 237 | O=C(O)c1ccc(N2C(=O)CCC2C(=O)O)c([N+](=O)[O-])c1 (configuration not stated)
72 | 88 to 90 | O=C(O)COCCOCCN1C(=O)c2ccccc2C1=O
73 | 267 to 268 | O=C(C=Cc1ccccc1)NNC(=O)C=Cc1ccccc1
74 | 180 to 181 | COc1ccc(OC)c(-c2cn(N=Cc3ccccc3)c(N)n2)c1
75 | 110 to 120 | CS(=O)(=O)c1ccc([C@@H](CC2CCCC2)C(=O)Nc2cnc(C(CO)CO)cn2)cc1Cl
76 | 143 to 145 | N#CC1=Cc2ccccc2N(C(N)=O)c2ccccc21
77 | 230 to 231 | c1cnc2cccn2c1
78 | 265 to 266 | O=C1Cn2ccnc2-c2ccccc2N1
79 | 161 to 163 | Cc1c(-c2ccc(O)cc2)n(Cc2ccc(/C=C/C(N)=O)cc2)c2ccc(O)cc12
80 | 238 to 241 | Cc1cc(Nc2c(C#N)cnc3cc(Br)ccc23)ccc1OCc1ccccn1
81 | 199 to 200 | CCOC(=O)CCc1cc([N+](=O)[O-])ccc1O
82 | 124 to 126 | COc1ccc(-n2c3ccccc3c3cc(C=C(C#N)c4ccc(F)c(F)c4F)ccc32)cc1
83 | 144 to 145 | CCS(=O)(=O)c1ccc(C(CC2CCCC2)C(=O)Nc2ccccn2)cc1 (configuration not stated)
84 | 237 to 239 | CCOc1ccc(-c2ccc3c(c2)C=C(C(=O)O)CCN3S(C)(=O)=O)cc1F
85 | 140 to 142 | CCCN=C(N)Nc1ccnc(CCCCc2ncc(CC)c(O)n2)n1

Row | melting point [°C] | SMILES
86 | 109 to 111 | COc1cccc(N2CCN(C(=O)Oc3ccc(Oc4ccc(C(F)(F)F)cn4)cc3)CC2)c1
87 | 98 to 99 | Oc1ccc(Cc2ccc(OCC(O)CCc3cccnc3)cc2)cc1 (configuration not stated)
88 | 101 to 103 | CCOc1nc(C(F)(F)F)cc(=O)n1-c1cc(OC(C)C)c(Cl)cc1F
89 | 118 | CCCC(=O)Nc1cc(Oc2ccccc2)ccc1NC(=NC(=O)OCC)SC
90 | 126 to 128 | CC(C)Cc1cc2cc(O)ccc2c(Oc2ccc(/C=C/C(=O)O)cc2)c1-c1ccccc1
91 | 56 to 58 | CCCCCc1ccc(-c2c(C(C)C)cc(-c3ccccc3)c(CO)c2C(C)C)nc1
92 | 204 to 205 | Nc1nc(SCCC(=O)c2ccccc2)c2[nH]cnc2n1
93 | 142 to 146 | Oc1ccc(SC2CC3CC(Sc4ccc(O)cc4)C2C3)cc1 (configuration not stated)
94 | 152 to 155 | Nc1nc(N)c2ncn(C(O)C3C=CCC3)c2n1 (configuration not stated)
95 | 99 to 112 | CC(C)[C@H](C[C@@H]1OC(C)(C)N(C(=O)OC(C)(C)C)[C@H]1CC1CCCCC1)C(=O)NCCNc1nc(N)n[nH]1
96 | 264 to 267 | Cn1nnnc1-c1cn(C)c2cc(F)ccc2c1=O
97 | 127 to 128 | COCCN(CCOC)c1nc2cc(-c3ccc(OC)cc3)nnc2c2ccccc12
98 | 213 to 215 | NC(CCCc1ccccc1)C(=O)O (configuration not stated)
99 | 299 to 300 | O=C1C(=O)c2ccccc2C2=C1SCC1(CCN(C(=O)c3ccc(-n4cccn4)cc3)CC1)O2
100 | 156 to 157 | O=[N+]([O-])c1cccc2c1ccn2S(=O)(=O)c1cccc2ccccc12
101 | 81.5 to 84.5 | O=C(c1ccccc1)N(c1ccccc1)c1ccc(OCCN2CCOCC2)cc1
102 | 25 to 27 | C=CCSc1ccc(OC)nn1
